Results: publication PMC6783499, “Heteroglycoclusters With Dual Nanomolar Affinities for the Lectins LecA and LecB From Pseudomonas aeruginosa” (Frontiers in Chemistry, 2019)

Tests used:
LecB = biological target: T1, LecB (Pseudomonas aeruginosa, UniProt Q9HYN5); assay: biochemical; assay type: binding
T1 construct: made in house; host or cells: Escherichia coli BL21(DE3)
Description: (§1) The resulting hGCs were tested in solution with lectins by Isothermal Titration Calorimetry (Table 1) and their binding properties were compared with homoclusters 15–20 (Berthet et al., [2013]; Thomas et al., [2015b]) displaying either 4 and 16 βGal or αFuc units attached with an oxime or a triazole linker (Figure 3). […] Experiments were performed in direct injection mode (i.e., ligand in syringe and protein in cell) to minimize aggregation problems.
(§2) All chemical reagents were purchased from Aldrich (Saint Quentin Fallavier, France) or Acros (Noisy-Le-Grand, France). All protected amino acids and Fmoc-Gly-Sasrin® resin was obtained from Advanced ChemTech Europe (Brussels, Belgium). For peptides and glycopeptides, analytical RP-HPLC was performed on Waters system equipped with a Waters 2695 separations module and a Waters 2487 Dual Absorbance UV/Visible Detector. Analysis was carried out at 1.0 mL/min (EC 125/3 nucleosil 300-5 C18) with UV monitoring at 214 nm and 250 nm using a linear A–B gradient (buffer A: 0.09% CF3CO2H in water; buffer B: 0.09% CF3CO2H in 90% acetonitrile). Purifications were carried out at 22.0 mL/min (VP 250/21 nucleosil 100-7 C18) with UV monitoring at 214 nm and 250 nm using a linear A–B gradient. HRMS and ESI-MS and HRMS spectra of peptides and glycopeptides were measured on an Esquire 3000 spectrometer from Bruker. Lectins LecA and LecB were produced in recombinant form in Escherichia coli BL21(DE3) as described previously (Mitchell et al., [2005]; Blanchard et al., [2008]).
(§3) Other compounds were assayed with a VP-ITC isothermal titration calorimeter (Microcal). The experiments were carried out at 25°C. All glycocompounds and lectins LecB and LecA were dissolved in the same buffer composed of 20 mM Tris with 100 mM NaCl and 0.1 mM CaCl2 at pH 7.5. For PEAQ-ITC, the lectins were placed in the microcalorimeter cell (200 μL) at concentrations varying from 35 to 70 μM. […] For VP-ITC, the microcalorimeter cell (1.447 mL) contained the lectins with concentrations between 30 and 100 μM. A total of 30 injections of 10 μL were performed intervals of 5 min while stirring at 310 rpm with glycoclusters concentrations varying from 0.40 to 0.150 μM. The experimental data were fitted to a theoretical titration curve using the Microcal PEAQ-ITC analysis software, with ΔH (enthalpy change), Ka (association constant), and N (number of binding sites per monomer) as adjustable parameters. Dissociation constant (Kd), free energy change (ΔG), and entropy contributions (TΔS) were derived from the previous ones. Two or three independent titrations were performed for each ligand tested.

LecA = biological target: T2, LecA (Pseudomonas aeruginosa, UniProt Q05097); assay: biochemical; assay type: binding
T2 construct: made in house; host or cells: Escherichia coli BL21(DE3)
T2 sequence (Q05097 whole entry): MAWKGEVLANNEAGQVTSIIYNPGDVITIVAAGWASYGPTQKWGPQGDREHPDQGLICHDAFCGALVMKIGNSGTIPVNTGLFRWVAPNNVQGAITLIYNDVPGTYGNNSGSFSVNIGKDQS
Description: as §1, §2
as §3, with “A total of 30 injections of 10 μL were performed intervals of 5 min while stirring at 310 rpm with glycoclusters concentrations varying from 0.40 to 0.150 μM.” left out

[1] = ITC, 25°C, per mole of glycocluster
[2] = LecA, ITC, 25°C, per mole of glycocluster

T1 sequence (Q9HYN5 entry or part of it): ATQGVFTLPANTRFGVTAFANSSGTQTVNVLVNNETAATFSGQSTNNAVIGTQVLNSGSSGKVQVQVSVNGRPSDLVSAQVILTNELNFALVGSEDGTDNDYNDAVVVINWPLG

SMILES: C[C@@H]1NC(=O)[C@H](CCCCNC(=O)/C=N/O[C@@H]2O[C@@H](C)[C@@H](O)[C@@H](O)[C@@H]2O)NC(=O)CNC(=O)[C@@H]2CCCN2C(=O)[C@H](CCCCNC(=O)/C=N/O[C@@H]2O[C@@H](C)[C@@H](O)[C@@H](O)[C@@H]2O)NC(=O)[C@H](CCCCNC(=O)CO/N=C/C(=O)NCCCC[C@@H]2NC(=O)CNC(=O)[C@@H]3CCCN3C(=O)[C@H](CCCCNC(=O)/C=N/OCC(=O)NCCCC[C@@H]3NC(=O)[C@H](CCCCNC(=O)/C=N/O[C@@H]4O[C@@H](C)[C@@H](O)[C@@H](O)[C@@H]4O)NC(=O)CNC(=O)[C@@H]4CCCN4C(=O)[C@H](CCCCNC(=O)/C=N/O[C@@H]4O[C@@H](C)[C@@H](O)[C@@H](O)[C@@H]4O)NC(=O)[C@H](C)NC(=O)[C@H](CCCCNC(=O)/C=N/O[C@@H]4O[C@@H](C)[C@@H](O)[C@@H](O)[C@@H]4O)NC(=O)CNC(=O)[C@@H]4CCCN4C(=O)[C@H](CCCCNC(=O)/C=N/O[C@@H]4O[C@@H](C)[C@@H](O)[C@@H](O)[C@@H]4O)NC3=O)NC(=O)[C@H](CCCCN)NC(=O)[C@H](CCCCNC(=O)CO/N=C/C(=O)NCCCC[C@@H]3NC(=O)[C@H](CCCCn4cc(CO[C@@H]5O[C@H](CO)[C@H](O)[C@H](O)[C@H]5O)nn4)NC(=O)CNC(=O)[C@@H]4CCCN4C(=O)[C@H](CCCCn4cc(CO[C@@H]5O[C@H](CO)[C@H](O)[C@H](O)[C@H]5O)nn4)NC(=O)[C@H](C)NC(=O)[C@H](CCCCn4cc(CO[C@@H]5O[C@H](CO)[C@H](O)[C@H](O)[C@H]5O)nn4)NC(=O)CNC(=O)[C@@H]4CCCN4C(=O)[C@H](CCCCn4cc(CO[C@@H]5O[C@H](CO)[C@H](O)[C@H](O)[C@H]5O)nn4)NC3=O)NC(=O)CNC(=O)[C@@H]3CCCN3C(=O)[C@H](CCCCNC(=O)CO/N=C/C(=O)NCCCC[C@@H]3NC(=O)[C@H](CCCCn4cc(CO[C@@H]5O[C@H](CO)[C@H](O)[C@H](O)[C@H]5O)nn4)NC(=O)CNC(=O)[C@@H]4CCCN4C(=O)[C@H](CCCCn4cc(CO[C@@H]5O[C@H](CO)[C@H](O)[C@H](O)[C@H]5O)nn4)NC(=O)[C@H](C)NC(=O)[C@H](CCCCn4cc(CO[C@@H]5O[C@H](CO)[C@H](O)[C@H](O)[C@H]5O)nn4)NC(=O)CNC(=O)[C@@H]4CCCN4C(=O)[C@H](CCCCn4cc(CO[C@@H]5O[C@H](CO)[C@H](O)[C@H](O)[C@H]5O)nn4)NC3=O)NC(=O)[C@H](C)NC2=O)NC(=O)[C@H](CCCCNC(=O)/C=N/O[C@@H]2O[C@@H](C)[C@@H](O)[C@@H](O)[C@@H]2O)NC(=O)CNC(=O)[C@@H]2CCCN2C(=O)[C@H](CCCCNC(=O)/C=N/O[C@@H]2O[C@@H](C)[C@@H](O)[C@@H](O)[C@@H]2O)NC1=O [Compound 11]
- –ΔH (binding enthalpy) (LecB; ITC): 50.7 kcal/mol
- n (stoichiometry, glycocluster molecules per lectin monomer) (LecB; ITC, 25°C, pH 7.5): 0.10
- –ΔG (LecB; [1]): 9.61 kcal/mol
- –ΔH (LecB; [1]): 50.69 ± 1.4 kcal/mol
- −TΔS (LecB; [1]): 41.09 kcal/mol
- Kd (LecB; Kd, ITC, 25°C, 20 mM Tris, 100 mM NaCl, 0.1 mM CaCl2, pH 7.5, ligand in syringe): 92 ± 14 nM
- binding to LecB in words (LecB; abstract): maintain their binding potency
- α (relative potency compared to the monovalent compound) (LecB; relative to αFuc-OMe): 4.7
- Kd (LecA): 34 ± 7 nM
- –ΔH (binding enthalpy) (LecA; LecA, ITC): 51.6 to 58.1 kcal/mol
- n (stoichiometry, glycocluster molecules per lectin monomer) (LecA; LecA, ITC, 25°C, pH 7.5): 0.16
- –ΔG (LecA; [2]): 10.2 kcal/mol
- –ΔH (LecA; [2]): 55.59 ± 0.48 kcal/mol
- −TΔS (LecA; [2]): 45.39 kcal/mol
- binding to LecA in words (LecA; LecA, abstract): maintain their binding potency
- α (relative potency compared to the monovalent compound) (LecA; LecA, relative to βGal-OMe): 4,412
- β (relative potency per sugar unit) (LecA; LecA, relative to βGal-OMe): 551
